This test addresses T1, BRAFV600E full-length (amino acids 2-766) (Homo sapiens, UniProt P15056, V600E).
T1 construct: His6-tagged BRAFV600E full-length (amino acids 2-766); His6; made in house; host or cells: baculovirus expression system (insect cells)
The experiment in a line: B-Raf Accelerated MEK ATPase assay (BRAMA). To be noted: categorized. It is filed as biochemical. The method, then:
Compounds of the present invention were tested for B-Raf protein serine kinase inhibitory activity in a B-Raf Accelerated MEK ATPase assay (BRAMA). […] The BRAMA assay is a high sensitivity assay which measures an intrinsic MEK-mediated ATP hydrolysis uncoupled from downstream ERK phosphorylation by coupling the formation of ADP to NADH oxidation through the enzymes pyruvate kinase and lactate dehydrogenase. When ADP production is initiated by addition of catalytic amounts of an activated Raf enzyme and non-phosphorylated MEK, one observes robust ADP production concomitant with Raf-mediated phosphorylation of MEK. The method is disclosed in: C. Rominger, M. Schaber, E. May. Assay for B-Raf Activity Based on Intrinsic MEK ATPase Activity.

[1] abbreviates: B-Raf Activity, Table 1a, highest pIC50 for the one or more runs.
[2] abbreviates: B-Raf pIC50, Table 1b, later runs, average pIC50 for the one or more runs.
Setting [3] is: Table 1b, later runs, average pIC50 for the one or more runs, read-out: B-Raf pIC50 (converted).
Where [4] appears, read: Table 1a, highest pIC50 for the one or more runs, read-out: B-Raf Activity.

29 compounds from patent US7994185B2, “Benzene sulfonamide thiazole and oxazole compounds” (Glaxo Smith Kline LLC, priority 2008, dated 2011) can be followed below.

Structures are written as SMILES. Counter-ions that a name gives are not always drawn. Like-named read-outs stand apart in the source and are kept apart here.

T1 sequence (P15056 2-766 V600E): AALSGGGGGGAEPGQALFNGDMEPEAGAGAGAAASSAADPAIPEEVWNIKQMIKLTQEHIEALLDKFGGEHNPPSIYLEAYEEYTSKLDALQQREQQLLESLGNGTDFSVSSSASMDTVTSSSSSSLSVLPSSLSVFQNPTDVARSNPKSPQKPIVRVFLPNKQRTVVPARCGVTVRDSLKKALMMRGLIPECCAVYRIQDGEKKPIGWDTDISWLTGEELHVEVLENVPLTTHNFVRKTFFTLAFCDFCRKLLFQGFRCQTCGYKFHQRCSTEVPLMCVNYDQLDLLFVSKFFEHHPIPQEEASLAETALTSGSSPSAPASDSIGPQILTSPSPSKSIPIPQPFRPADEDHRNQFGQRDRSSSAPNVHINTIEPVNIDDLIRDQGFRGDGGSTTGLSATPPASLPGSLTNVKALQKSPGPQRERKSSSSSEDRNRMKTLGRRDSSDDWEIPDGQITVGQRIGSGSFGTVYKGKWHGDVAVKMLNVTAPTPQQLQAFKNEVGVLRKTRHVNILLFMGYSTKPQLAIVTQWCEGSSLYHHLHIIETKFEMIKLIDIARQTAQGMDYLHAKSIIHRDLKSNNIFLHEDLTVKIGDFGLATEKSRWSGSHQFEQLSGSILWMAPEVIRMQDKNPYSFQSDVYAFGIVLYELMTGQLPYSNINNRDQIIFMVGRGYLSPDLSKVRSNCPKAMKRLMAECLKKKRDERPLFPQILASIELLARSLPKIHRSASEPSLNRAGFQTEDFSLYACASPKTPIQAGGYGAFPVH

The compound `CC(C)c1nc(-c2cccc(NS(=O)(=O)c3c(F)cccc3F)c2)c(-c2ccnc(NCCS(C)(=O)=O)n2)s1` [Example 1, 2,6-Difluoro-N-{3-[2-(1-methylethyl)-5-(2-{[2-(methylsulfonyl)ethyl]amino}-4-pyrimidinyl)-1,3-thiazol-4-yl]phenyl}benzenesulfonamide] had an IC50 under setting [1] of less than 0.1 µM and an IC50 under setting [2] of no more than 0.00316 µM. Turning to `CC(C)c1nc(-c2ccc(F)c(NS(=O)(=O)c3c(F)cccc3F)c2)c(-c2ccnc(NCCS(C)(=O)=O)n2)s1` [Example 8, 2,6-Difluoro-N-{2-fluoro-5-[2-(1-methylethyl)-5-(2-{[2-(methylsulfonyl)ethyl]amino}-4-pyrimidinyl)-1,3-thiazol-4-yl]phenyl}benzenesulfonamide], the IC50 was less than 0.1 µM under setting [1] and 0.00316 to 0.0316 µM under setting [3].

As for `CC(C)(C)c1nc(-c2ccc(F)c(NS(=O)(=O)c3c(F)cccc3F)c2)c(-c2ccnc(NCCS(C)(=O)=O)n2)s1` [Example 10, N-{5-[2-(1,1-Dimethylethyl)-5-(2-{[2-(methylsulfonyl)ethyl]amino}-4-pyrimidinyl)-1,3-thiazol-4-yl]-2-fluorophenyl}-2,6-difluorobenzenesulfonamide], the IC50 is less than 0.1 µM under setting [1] and 0.00316 to 0.0316 µM under setting [3]. On to `CC(C)c1nc(-c2cccc(NS(=O)(=O)c3c(F)cccc3F)c2F)c(-c2ccnc(NCCS(C)(=O)=O)n2)s1` [Example 11, 2,6-Difluoro-N-{2-fluoro-3-[2-(1-methylethyl)-5-(2-{[2-(methylsulfonyl)ethyl]amino}-4-pyrimidinyl)-1,3-thiazol-4-yl]phenyl}benzenesulfonamide], for which the IC50 was less than 0.1 µM under setting [1] and no more than 0.00316 µM under setting [2]. For `CC(C)c1nc(-c2ccc(F)c(NS(=O)(=O)c3cccc(F)c3)c2)c(-c2ccnc(N)n2)s1` [Example 84, N-{5-[5-(2-Amino-4-pyrimidinyl)-2-(1-methylethyl)-1,3-thiazol-4-yl]-2-fluorophenyl}-3-fluorobenzenesulfonamide] the same measures were 0.1 to 1 µM and 0.0316 to 1 µM. Turning to `CC(C)c1nc(-c2cccc(NS(=O)(=O)c3cccc(F)c3)c2)c(-c2ccnc(NCC(N)=O)n2)s1` [Example 87, N^2-{4-[4-(3-{[(3-Fluorophenyl)sulfonyl]amino}phenyl)-2-(1-methylethyl)-1,3-thiazol-5-yl]-2-pyrimidinyl}glycinamide], the IC50 was less than 0.1 µM under setting [1] and 0.00316 to 0.0316 µM under setting [3]. For the compound `CC(C)c1nc(-c2cccc(NS(=O)(=O)c3cccc(F)c3)c2)c(-c2ccnc(NCCCN(C)C)n2)s1` [Example 88, N-{3-[5-(2-{[3-(Dimethylamino)propyl]amino}-4-pyrimidinyl)-2-(1-methylethyl)-1,3-thiazol-4-yl]phenyl}-3-fluorobenzenesulfonamide], the IC50 by setting is: under setting [1], less than 0.1 µM; under setting [3], 0.00316 to 0.0316 µM.

Turning to `CC(C)c1nc(-c2cccc(NS(=O)(=O)c3cccc(F)c3)c2)c(-c2ccnc(NC3CC3)n2)s1` [Example 89, N-{3-[5-[2-(Cyclopropylamino)-4-pyrimidinyl]-2-(1-methylethyl)-1,3-thiazol-4-yl]phenyl}-3-fluorobenzenesulfonamide], the IC50 was less than 0.1 µM under setting [1] and 0.0316 to 1 µM under setting [2]. As to `CC(C)c1nc(-c2cccc(NS(=O)(=O)c3c(F)cccc3F)c2)c(-c2ccnc(N)n2)s1` [Example 90, N-{3-[5-(2-Amino-4-pyrimidinyl)-2-(1-methylethyl)-1,3-thiazol-4-yl]phenyl}-2,6-difluorobenzenesulfonamide], the IC50 is, setting by setting: under setting [1], less than 0.1 µM; under setting [2], 0.0316 to 1 µM. For `Nc1nccc(-c2scnc2-c2cccc(NS(=O)(=O)c3c(F)cccc3F)c2)n1` [Example 114, N-{3-[5-(2-Amino-4-pyrimidinyl)-1,3-thiazol-4-yl]phenyl}-2,6-difluorobenzenesulfonamide] the same measures were 0.1 to 1 µM and 0.0316 to 1 µM. With `CC(C)(C)c1nc(-c2cccc(NS(=O)(=O)c3cc(F)ccc3F)c2)c(-c2ccnc(N)n2)s1` [Example 116, N-{3-[5-(2-Amino-4-pyrimidinyl)-2-(1,1-dimethylethyl)-1,3-thiazol-4-yl]phenyl}-2,5-difluorobenzenesulfonamide], the IC50 under setting [1] was less than 0.1 µM and the IC50 under setting [3] is 0.00316 to 0.0316 µM. Take `CC(C)c1nc(-c2ccc(F)c(NS(=O)(=O)c3c(F)cccc3F)c2)c(-c2ccnc(NCCCN(C)C)n2)s1` [Example 169]: the IC50 under setting [4] was greater than 1 µM. On to `CC(C)c1nc(-c2ccc(F)c(NS(=O)(=O)c3c(F)cccc3F)c2)c(-c2ccnc(NCCN3CCCC3)n2)s1` [Example 170], for which the IC50 under setting [4] is greater than 1 µM.

With `CC(C)c1nc(-c2ccc(F)c(NS(=O)(=O)c3c(F)cccc3F)c2)c(-c2ccnc(NCCN3CCOCC3)n2)s1` [Example 171], the IC50 under setting [4] is 0.1 to 1 µM.

Regarding `CC(C)c1nc(-c2ccc(F)c(NS(=O)(=O)c3c(F)cccc3F)c2)c(-c2ccnc(NCCOCCO)n2)s1` [Example 172], the IC50 under setting [4] fell in the range of 0.1 to 1 µM. With `CC(C)c1nc(-c2ccc(F)c(NS(=O)(=O)c3c(F)cccc3F)c2)c(-c2ccnc(NCCCCN(C)C)n2)s1` [Example 173], under setting [4], the IC50 fell in the range of 0.1 to 1 µM. For the compound `COCCCNc1nccc(-c2sc(C(C)C)nc2-c2ccc(F)c(NS(=O)(=O)c3c(F)cccc3F)c2)n1` [Example 174], the IC50 under setting [4] lay within 0.1 to 1 µM.

Consider `CCc1nc(-c2cccc(NS(=O)(=O)c3c(F)cccc3F)c2F)c(-c2ccnc(N)n2)s1` [Example 257, N-{3-[5-(2-amino-4-pyrimidinyl)-2-ethyl-1,3-thiazol-4-yl]-2-fluorophenyl}-2,6-difluorobenzenesulfonamide], for which the IC50 under setting [3] was 0.00316 to 0.0316 µM. `CC(C)(C)c1nc(-c2c(F)ccc(NS(=O)(=O)c3cc(F)ccc3F)c2F)c(-c2ccncn2)s1` [Example 260, N-{3-[2-(1,1-dimethylethyl)-5-(4-pyrimidinyl)-1,3-thiazol-4-yl]-2,4-difluorophenyl}-2,5-difluorobenzenesulfonamide] yielded an IC50 under setting [2] of no more than 0.00316 µM. Consider `CC(C)(C)c1nc(-c2cccc(NS(=O)(=O)c3ccco3)c2Cl)c(-c2ccncn2)s1` [Example 261, N-{2-chloro-3-[2-(1,1-dimethylethyl)-5-(4-pyrimidinyl)-1,3-thiazol-4-yl]phenyl}-2-furansulfonamide], for which, under setting [2], the IC50 is no more than 0.00316 µM. Turning to `CC(C)(C)c1nc(-c2cccc(NS(=O)(=O)c3ccoc3)c2Cl)c(-c2ccncn2)s1` [Example 268, N-{2-chloro-3-[2-(1,1-dimethylethyl)-5-(4-pyrimidinyl)-1,3-thiazol-4-yl]phenyl}-3-furansulfonamide], the IC50 under setting [2] is no more than 0.00316 µM. `CS(=O)(=O)NCc1nccc(-c2sc(N3CCOCC3)nc2-c2cccc(NS(=O)(=O)c3cc(F)ccc3F)c2F)n1` [Example 273, 2,5-difluoro-N-{2-fluoro-3-[5-(2-{[(methylsulfonyl)amino]methyl}-4-pyrimidinyl)-2-(4-morpholinyl)-1,3-thiazol-4-yl]phenyl}benzenesulfonamide]: the IC50 under setting [2] is no more than 0.00316 µM. For the compound `O=C(NCc1nccc(-c2sc(N3CCOCC3)nc2-c2cccc(NS(=O)(=O)c3cc(F)ccc3F)c2F)n1)C1CCCC1` [Example 274, N-({4-[4-(3-{[(2,5-difluorophenyl)sulfonyl]amino}-2-fluorophenyl)-2-(4-morpholinyl)-1,3-thiazol-5-yl]-2-pyrimidinyl}methyl)cyclopentanecarboxamide], the IC50 under setting [3] was 0.00316 to 0.0316 µM.

Take `CC(C)C(=O)NCc1nccc(-c2sc(N3CCOCC3)nc2-c2cccc(NS(=O)(=O)c3cc(F)ccc3F)c2F)n1` [Example 275, N-({4-[4-(3-{[(2,5-difluorophenyl)sulfonyl]amino}-2-fluorophenyl)-2-(4-morpholinyl)-1,3-thiazol-5-yl]-2-pyrimidinyl}methyl)-2-methylpropanamide]: under setting [3], the IC50 was 0.00316 to 0.0316 µM. Turning to `CC(=O)NCc1nccc(-c2sc(N3CCOCC3)nc2-c2cccc(NS(=O)(=O)c3cc(F)ccc3F)c2F)n1` [Example 276, N-({4-[4-(3-{[(2,5-difluorophenyl)sulfonyl]amino}-2-fluorophenyl)-2-(4-morpholinyl)-1,3-thiazol-5-yl]-2-pyrimidinyl}methyl)acetamide], the IC50 under setting [3] was 0.00316 to 0.0316 µM. Regarding `C=Cc1nccc(-c2sc(N3CCOCC3)nc2-c2cccc(NS(=O)(=O)c3cc(F)ccc3F)c2F)n1` [Example 277, N-{3-[5-(2-ethenyl-4-pyrimidinyl)-2-(4-morpholinyl)-1,3-thiazol-4-yl]-2-fluorophenyl}-2,5-difluorobenzenesulfonamide], the IC50 under setting [3] is 0.00316 to 0.0316 µM. In the case of `Nc1nccc(-c2sc(C3CCOCC3)nc2-c2cccc(NS(=O)(=O)c3ccccn3)c2F)n1` [Example 279, N-{3-[5-(2-amino-4-pyrimidinyl)-2-(tetrahydro-2H-pyran-4-yl)-1,3-thiazol-4-yl]-2-fluorophenyl}-2-pyridinesulfonamide], under setting [3], the IC50 was 0.00316 to 0.0316 µM. On to `Cn1ccc(S(=O)(=O)Nc2cccc(-c3nc(C(C)(C)C)sc3-c3ccnc(N)n3)c2F)n1` [Example 288, N-{3-[5-(2-amino-4-pyrimidinyl)-2-(1,1-dimethylethyl)-1,3-thiazol-4-yl]-2-fluorophenyl}-1-methyl-1H-pyrazole-3-sulfonamide hydrochloride], for which the IC50 under setting [2] was in the range of 0.0316 to 1 µM. As to `Cn1ccc(S(=O)(=O)Nc2cccc(-c3nc(C4CCOCC4)sc3-c3ccnc(N)n3)c2F)n1` [Example 289, N-{3-[5-(2-amino-4-pyrimidinyl)-2-(tetrahydro-2H-pyran-4-yl)-1,3-thiazol-4-yl]-2-fluorophenyl}-1-methyl-1H-pyrazole-3-sulfonamide hydrochloride], the IC50 under setting [2] was in the range of 0.0316 to 1 µM.
